Reference: patent US7276330B2, “Devices, systems and methods for time domain multiplexing of reagents” (Caliper Technologies Corp., priority 1999, dated 2007)

Molecular target: T1, Gq coupled P2u purinergic receptor (THP-1) (Homo sapiens, UniProt P41231)
T1 construct: human monocytic leukemia cell line that carried the Gq coupled P2u purinergic receptor (THP-1); endogenous in cells; host or cells: THP-1 (human monocytic leukemia cell line)
Assay: model calcium flux assay in THP-1 cells in a microfluidic device
Format: cell-based
Details: THP-1 cells preloaded with Fluo-3 or Fluo-4; UTP 100, 300, 1000 and 3000 nM; detection 15 seconds after exposure
Excerpt: The device shown in FIG. 1A was used to test the dose response of a human monocytic leukemia cell line that carried the Gq coupled P2u purinergic receptor (THP-1), as a model calcium flux assay. Briefly, a phospholipase C/IP3/calcium signal transduction pathway is activated when the receptor binds to its ligand UTP. When the cells are preloaded with a calcium sensitive indicator, i.e., Fluo-3 or Fluo-4 (available from Molecular Probes, Eugene, Oreg.). The transient increase in intracellular calcium is then detected as a fluorescent signal.
In the present example, THP-1 cells were preloaded with Fluo-3 or Fluo-4, as well as a nucleic acid stain (Syto-62 from Molecular Probes). The cells were washed and resuspended in Cell Buffer (1.56 ml HBSS, 0.94 ml 33% Ficoll, 5 μl HEPES (1 M stock), 25 μl 100× PBC, 25 μl 10% BSA, and 0.546 ml OPTI-Prep (65% stock)) and added to reservoir 106. Different concentrations of UTP in Cell Buffer (100, 300, 1000 and 3000 nM, respectively) were then added to reagent reservoirs 110-116. […]
In order to monitor the stepwise increase of each UTP reagent solution, an additional marker solution, BODIPY-arginine, was added to the reagent reservoirs 110-116. […] Briefly, the slope of calcium signal (response) vs. Syto 62 signal (cell number) was calculated for each UTP concentration. […]

T1 sequence (P41231 whole entry): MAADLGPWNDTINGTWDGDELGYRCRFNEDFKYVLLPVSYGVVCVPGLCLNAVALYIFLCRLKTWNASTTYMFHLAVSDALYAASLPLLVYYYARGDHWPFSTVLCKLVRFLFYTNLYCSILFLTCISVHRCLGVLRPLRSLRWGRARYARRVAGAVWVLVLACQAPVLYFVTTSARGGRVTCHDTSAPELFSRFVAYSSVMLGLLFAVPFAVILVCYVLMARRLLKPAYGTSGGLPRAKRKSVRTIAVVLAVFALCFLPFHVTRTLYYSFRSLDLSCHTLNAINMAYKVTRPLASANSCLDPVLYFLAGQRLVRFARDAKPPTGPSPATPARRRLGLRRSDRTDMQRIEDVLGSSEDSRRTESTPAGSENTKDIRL

Compound: O=c1ccn([C@@H]2O[C@H](COP(=O)(O)OP(=O)(O)OP(=O)(O)O)[C@@H](O)[C@H]2O)c(=O)[nH]1 [UTP]
- calcium signal (fluorescent peaks from each cell) with stepwise addition of UTP: increase discernibly in size
